Assay results as given in US8192962B2, “Processes for detecting toxic substances” (Daikin Industries, Ltd., priority 2001, dated 2012).

Tested on: Energy system protein genes
Experiment: DNA chip mRNA expression in yeast, energy system protein genes (Table 4)
Type: cell-based, Saccharomyces cerevisiae S288C
Procedure: Yeast (Saccharomyces cerevisiae S288C (α SUC2mal mel gap2 CUP1)) were incubated at 25° C. on YPD medium (yeast extract 1%, polypepton 2%, glucose 2%). One of toxic chemical substances was added to the cells at logarithmic growth phase, and the cells were further incubated for two hours. Cells were cultured without any chemical substance in the same condition, and were used as control. Concentrations of the chemical substances were defined to inhibit the growth of the yeast but not lead to death.
After completion of the incubation, the culture was centrifuged to collect the cells. To the cells, sodium acetate buffer (50 mM sodium acetate, 10 mM EDTA, 1% SDS) was added, and the mixture was shaken at 65° C. for five minutes, followed by returning to room temperature, and obtaining the supernatant, of which the procedures were repeated two times. To the supernatant, ½ amount of a solution of phenol/chloroform was added, and the mixture was centrifuged to give a supernatant, which was added with an equal amount of chloroform, and the mixture was centrifuged to give a supernatant. To the supernatant, an equal amount of isopropanol containing 0.3 M sodium acetate was added, and the mixture was allowed to stand at room temperature for 30 minutes, after which the mixture was centrifuged to give a sediment of the whole RNAs. Seventy % ethanol was added to the sediment, and the mixture was again centrifuged to give a sediment, which was then dried and dissolved in water. mRNA was isolated from the whole RNAs as followings. In view of the fact that a poly A chain is attached to the 3′ terminus of mRNA, a polynucleotide having a poly T structure which was immobilized on the surface of latex beads was used to trap the mRNA, and then the mRNA was washed and eluted with spine column (Oligotex-dT30<Super>mRNA Purification Kit, Takara). Reverse transcription of the mRNA was conducted with a reverse transcriptase (Super Script II Reverse Transcriptase; catalogue No. 18064-014, GibcoBRL) using fluorescence-labeled nucleotides to give cDNAs that were introduced with Cy3-dUTP or Cy5-dUTP during the reverse transcription.
The labeled cDNAs were dissolved in TE buffer (10mM Tris-HCl/1 mM EDTA, pH8.0), and the solution was dropped on the DNA chip containing the whole genes of yeast (DNA Chip Research Inc. Japan) so that the cDNAs were hybridized on the DNA chip at 65° C. for over 12 hours. The fluoresces intensity of the DNA chip was read with a scanner, and the ratio relative to the fluorescence intensity resulting from the absence of chemical substance was estimated as the following, which is shown in Tables 1 to 9: […]

## CN(C)C(=S)SSC(=S)N(C)C [(10), Tetramethylthiuram disulfide]
Yeast gene YAL060W
  The level of expressed mRNA in the presence of chemical substance/The level of expressed mRNA in the absence of chemical substance: 2.5
Yeast gene YBL058W, cells incubated two hours with the chemical substance
  The level of expressed mRNA in the presence of chemical substance/The level of expressed mRNA in the absence of chemical substance: 2.1
Yeast gene YBL099W, cells incubated two hours with the chemical substance
  The level of expressed mRNA in the presence of chemical substance/The level of expressed mRNA in the absence of chemical substance: 0.7
Yeast gene YBR001C, cells incubated two hours with the chemical substance
  The level of expressed mRNA in the presence of chemical substance/The level of expressed mRNA in the absence of chemical substance: 2.1
Yeast gene YBR185C, cells incubated two hours with the chemical substance
  The level of expressed mRNA in the presence of chemical substance/The level of expressed mRNA in the absence of chemical substance: 1.6
Yeast gene YBR221C, cells incubated two hours with the chemical substance
  The level of expressed mRNA in the presence of chemical substance/The level of expressed mRNA in the absence of chemical substance: 1.3
Yeast gene YCL040W
  The level of expressed mRNA in the presence of chemical substance/The level of expressed mRNA in the absence of chemical substance: 3.0
Yeast gene YCR012W
  The level of expressed mRNA in the presence of chemical substance/The level of expressed mRNA in the absence of chemical substance: 1.5
Yeast gene YCR046C, cells incubated two hours with the chemical substance
  The level of expressed mRNA in the presence of chemical substance/The level of expressed mRNA in the absence of chemical substance: 1.4
Yeast gene YCR105W, cells incubated two hours with the chemical substance
  The level of expressed mRNA in the presence of chemical substance/The level of expressed mRNA in the absence of chemical substance: 3.9
Yeast gene YDL021W
  The level of expressed mRNA in the presence of chemical substance/The level of expressed mRNA in the absence of chemical substance: 7.4
Yeast gene YDL067C, cells incubated two hours with the chemical substance
  The level of expressed mRNA in the presence of chemical substance/The level of expressed mRNA in the absence of chemical substance: 0.9
Yeast gene YDL078C, cells incubated two hours with the chemical substance
  The level of expressed mRNA in the presence of chemical substance/The level of expressed mRNA in the absence of chemical substance: 1.0
Yeast gene YDL107W, cells incubated two hours with the chemical substance
  The level of expressed mRNA in the presence of chemical substance/The level of expressed mRNA in the absence of chemical substance: 1.8
Yeast gene YDL174C
  The level of expressed mRNA in the presence of chemical substance/The level of expressed mRNA in the absence of chemical substance: 1.7
Yeast gene YDL181W, cells incubated two hours with the chemical substance
  The level of expressed mRNA in the presence of chemical substance/The level of expressed mRNA in the absence of chemical substance: 0.8
Yeast gene YDR001C
  The level of expressed mRNA in the presence of chemical substance/The level of expressed mRNA in the absence of chemical substance: 3.0
Yeast gene YDR050C, cells incubated two hours with the chemical substance
  The level of expressed mRNA in the presence of chemical substance/The level of expressed mRNA in the absence of chemical substance: 1.3
Yeast gene YDR079W, cells incubated two hours with the chemical substance
  The level of expressed mRNA in the presence of chemical substance/The level of expressed mRNA in the absence of chemical substance: 0.8
Yeast gene YDR178W, cells incubated two hours with the chemical substance
  The level of expressed mRNA in the presence of chemical substance/The level of expressed mRNA in the absence of chemical substance: 0.8
Yeast gene YDR231C
  The level of expressed mRNA in the presence of chemical substance/The level of expressed mRNA in the absence of chemical substance: 1.4
Yeast gene YDR298C, cells incubated two hours with the chemical substance
  The level of expressed mRNA in the presence of chemical substance/The level of expressed mRNA in the absence of chemical substance: 1.6
Yeast gene YDR377W, cells incubated two hours with the chemical substance
  The level of expressed mRNA in the presence of chemical substance/The level of expressed mRNA in the absence of chemical substance: 0.9
Yeast gene YDR529C, cells incubated two hours with the chemical substance
  The level of expressed mRNA in the presence of chemical substance/The level of expressed mRNA in the absence of chemical substance: 0.6
Yeast gene YEL024W, cells incubated two hours with the chemical substance
  The level of expressed mRNA in the presence of chemical substance/The level of expressed mRNA in the absence of chemical substance: 0.6
Yeast gene YEL039C, cells incubated two hours with the chemical substance
  The level of expressed mRNA in the presence of chemical substance/The level of expressed mRNA in the absence of chemical substance: 1.2
Yeast gene YER178W
  The level of expressed mRNA in the presence of chemical substance/The level of expressed mRNA in the absence of chemical substance: 1.3
Yeast gene YFL057C
  The level of expressed mRNA in the presence of chemical substance/The level of expressed mRNA in the absence of chemical substance: 46.1
Yeast gene YFR053C
  The level of expressed mRNA in the presence of chemical substance/The level of expressed mRNA in the absence of chemical substance: 1.1
Yeast gene YGL018C, cells incubated two hours with the chemical substance
  The level of expressed mRNA in the presence of chemical substance/The level of expressed mRNA in the absence of chemical substance: 1.4
Yeast gene YGL062W
  The level of expressed mRNA in the presence of chemical substance/The level of expressed mRNA in the absence of chemical substance: 2.5
Yeast gene YGL187C, cells incubated two hours with the chemical substance
  The level of expressed mRNA in the presence of chemical substance/The level of expressed mRNA in the absence of chemical substance: 0.6
Yeast gene YGL191W, cells incubated two hours with the chemical substance
  The level of expressed mRNA in the presence of chemical substance/The level of expressed mRNA in the absence of chemical substance: 1.3
Yeast gene YGL205W, cells incubated two hours with the chemical substance
  The level of expressed mRNA in the presence of chemical substance/The level of expressed mRNA in the absence of chemical substance: 0.6
Yeast gene YGL256W, cells incubated two hours with the chemical substance
  The level of expressed mRNA in the presence of chemical substance/The level of expressed mRNA in the absence of chemical substance: 1.2
Yeast gene YGR008C
  The level of expressed mRNA in the presence of chemical substance/The level of expressed mRNA in the absence of chemical substance: 2.4
Yeast gene YGR043C
  The level of expressed mRNA in the presence of chemical substance/The level of expressed mRNA in the absence of chemical substance: 8.4
Yeast gene YGR062C, cells incubated two hours with the chemical substance, 25° C., YPD medium
  The level of expressed mRNA in the presence of chemical substance/The level of expressed mRNA in the absence of chemical substance: 1.4
Yeast gene YGR087C, cells incubated two hours with the chemical substance
  The level of expressed mRNA in the presence of chemical substance/The level of expressed mRNA in the absence of chemical substance: 0.9
Yeast gene YGR174C, cells incubated two hours with the chemical substance
  The level of expressed mRNA in the presence of chemical substance/The level of expressed mRNA in the absence of chemical substance: 0.7
Yeast gene YGR192C
  The level of expressed mRNA in the presence of chemical substance/The level of expressed mRNA in the absence of chemical substance: 1.3
Yeast gene YGR207C
  The level of expressed mRNA in the presence of chemical substance/The level of expressed mRNA in the absence of chemical substance: 2.6
Yeast gene YGR244C
  The level of expressed mRNA in the presence of chemical substance/The level of expressed mRNA in the absence of chemical substance: 1.1
Yeast gene YGR254W
  The level of expressed mRNA in the presence of chemical substance/The level of expressed mRNA in the absence of chemical substance: 1.2
Yeast gene YGR256W
  The level of expressed mRNA in the presence of chemical substance/The level of expressed mRNA in the absence of chemical substance: 2.5
Yeast gene YHL008C
  The level of expressed mRNA in the presence of chemical substance/The level of expressed mRNA in the absence of chemical substance: 1.7
Yeast gene YHR179W
  The level of expressed mRNA in the presence of chemical substance/The level of expressed mRNA in the absence of chemical substance: 5.8
Yeast gene YIL160C
  The level of expressed mRNA in the presence of chemical substance/The level of expressed mRNA in the absence of chemical substance: 3.8
Yeast gene YIL172C
  The level of expressed mRNA in the presence of chemical substance/The level of expressed mRNA in the absence of chemical substance: 7.1
Yeast gene YIR031C, cells incubated two hours with the chemical substance
  The level of expressed mRNA in the presence of chemical substance/The level of expressed mRNA in the absence of chemical substance: 1.0
Yeast gene YJL052W
  The level of expressed mRNA in the presence of chemical substance/The level of expressed mRNA in the absence of chemical substance: 2.0
Yeast gene YJL121C, cells incubated two hours with the chemical substance
  The level of expressed mRNA in the presence of chemical substance/The level of expressed mRNA in the absence of chemical substance: 0.4
Yeast gene YJL166W, cells incubated two hours with the chemical substance
  The level of expressed mRNA in the presence of chemical substance/The level of expressed mRNA in the absence of chemical substance: 1.2
